13 compounds from ChEMBL document CHEMBL3400082, “Synthesis of 6-aryl-substituted sulfocoumarins and investigation of their carbonic anhydrase inhibitory action” (Bioorg Med Chem, 2015) can be followed below.

Molecules are shown by their SMILES.

The target of one assay is Carbonic anhydrase 1 (Homo sapiens, UniProt P00915). Description: Inhibition of human cytosolic carbonic anhydrase 1 by stopped-flow CO2 hydrase assay.
Another assay deals with Carbonic anhydrase 2 (Homo sapiens, UniProt P00918). Kind of assay: Inhibition of human cytosolic carbonic anhydrase 2 by stopped-flow CO2 hydrase assay.
A further assay concerns the target Carbonic anhydrase 9 (Homo sapiens, UniProt Q16790). Kind of assay: Inhibition of human tumor-associated carbonic anhydrase 9 by stopped-flow CO2 hydrase assay.

Carbonic anhydrase 1, sequence (P00915 whole entry): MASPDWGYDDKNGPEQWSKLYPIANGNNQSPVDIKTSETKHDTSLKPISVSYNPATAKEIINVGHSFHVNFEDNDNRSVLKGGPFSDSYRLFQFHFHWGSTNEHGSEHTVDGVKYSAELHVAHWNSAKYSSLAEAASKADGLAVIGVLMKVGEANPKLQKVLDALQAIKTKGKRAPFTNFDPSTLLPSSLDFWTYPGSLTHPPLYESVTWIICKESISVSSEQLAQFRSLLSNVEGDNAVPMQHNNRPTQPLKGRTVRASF

A word on the Ki: it is a measure of affinity in units of concentration, obtained from inhibition or displacement. A lower Ki goes with a stronger hold on the target. On to `Cc1ccc(-c2ccc3c(c2)C=CS(=O)(=O)O3)cc1`, for which the Ki on Carbonic anhydrase 1 was over 10 µM; at Carbonic anhydrase 2, over 10 µM; at Carbonic anhydrase 9, 0.0774 µM.
Turning to `O=S1(=O)C=Cc2cc(-c3ccc(C(F)(F)F)cc3)ccc2O1`, the Ki at Carbonic anhydrase 1 was over 10 µM; on Carbonic anhydrase 2, over 10 µM; on Carbonic anhydrase 9 it was 0.0297 µM.
With `O=S1(=O)C=Cc2cc(-c3ccc(Cl)c(Cl)c3)ccc2O1`, the Ki is over 10 µM on Carbonic anhydrase 1, over 10 µM on Carbonic anhydrase 2 and 0.0094 µM on Carbonic anhydrase 9.
In the case of `COc1ccc(-c2ccc3c(c2)C=CS(=O)(=O)O3)cc1`, the Ki on Carbonic anhydrase 1 is over 10 µM; on Carbonic anhydrase 2 it was over 10 µM; at Carbonic anhydrase 9 it was 0.0709 µM.
Regarding `COC(=O)c1cccc(-c2ccc3c(c2)C=CS(=O)(=O)O3)c1`, the Ki at Carbonic anhydrase 1 is over 10 µM; on Carbonic anhydrase 2, over 10 µM; on Carbonic anhydrase 9 it was 0.009 µM.
For the compound `O=S1(=O)C=Cc2cc(-c3ccc(F)cc3)ccc2O1`, the Ki at Carbonic anhydrase 1 is over 10 µM; on Carbonic anhydrase 2, over 10 µM; at Carbonic anhydrase 9 it was 0.0953 µM.
As for `O=S1(=O)C=Cc2cc(-c3ccc(OC(F)(F)F)cc3)ccc2O1`, the values for the Ki on Carbonic anhydrase 1, at Carbonic anhydrase 2 and on Carbonic anhydrase 9 were over 10 µM, over 10 µM and 0.0762 µM, respectively.
As to `O=S1(=O)C=Cc2cc(-c3cccc(C(F)(F)F)c3)ccc2O1`, the Ki at Carbonic anhydrase 1 is over 10 µM; on Carbonic anhydrase 2 it was over 10 µM; at Carbonic anhydrase 9, 0.0098 µM.
With `CC(C)(C)c1ccc(-c2ccc3c(c2)C=CS(=O)(=O)O3)cc1`, the results for the Ki at Carbonic anhydrase 1, at Carbonic anhydrase 2 and at Carbonic anhydrase 9 were over 10 µM, over 10 µM and 0.0091 µM, respectively.
As to `O=S1(=O)C=Cc2cc(-c3ccccc3)ccc2O1`, the Ki is over 10 µM on Carbonic anhydrase 1, over 10 µM on Carbonic anhydrase 2 and 0.0599 µM on Carbonic anhydrase 9.
In the case of `Cc1ccccc1-c1ccc2c(c1)C=CS(=O)(=O)O2`, the Ki on Carbonic anhydrase 1 is over 10 µM; at Carbonic anhydrase 2 it was over 10 µM; at Carbonic anhydrase 9, 0.0708 µM.
On to `O=S1(=O)C=Cc2cc(-c3cccc(F)c3)ccc2O1`, for which the Ki at Carbonic anhydrase 1 was over 10 µM; on Carbonic anhydrase 2, over 10 µM; at Carbonic anhydrase 9, 0.0103 µM.
Regarding `CC(C)Oc1ccc(-c2ccc3c(c2)C=CS(=O)(=O)O3)cc1`, the Ki is over 10 µM at Carbonic anhydrase 1, over 10 µM on Carbonic anhydrase 2 and 0.0098 µM at Carbonic anhydrase 9.
